The record followed here is BindingDB's records for patent US20250115590 (Foresee Pharmaceuticals USA, 2025).

This test addresses Macrophage metalloelastase (Homo sapiens, UniProt P39900). As to the kind of experiment: MMP Inhibitory Assays. The protocol:
The inhibitory effect of compounds on the rate of cleaving fluorogenic MMP substrate (Enzo, BML-P128) by recombinant human MMP-12 catalytic domain (Enzo, BML-SE138) was carried out by methods known in the art. Briefly, to each well of a 96-well black opaque plate, all the reagents were sequentially added by pipetting, and the final reaction contained 4 nM of recombinant human MMP-12 catalytic domain, […] MMP substrate, and various concentrations (0.15 nM to 10,000 nM) of tested compound dilutions in HEPES buffer (pH 7.5) containing 10 mM of CaCl2, 0.01% Brij 35 (polyoxyethylene (23) lauryl ether), and 0.1 mg/ml of BSA. The enzyme and compounds were pre-incubated on a shaker to mix in wells. After an hour of mixing, fluorogenic substrate was added to each well. Reaction without enzyme was used as a blank control in the plate. The plate was then fed into a plate reader to measure fluorescence intensity at Excitation/Emission wavelengths of 340 nm/440 nm every 10 mins for at least 1 hour at 37° C. The IC50 of each compound in MMP-12 inhibition was determined by using a readout obtained at time point 30 minutes.

Macrophage metalloelastase, sequence (P39900 whole entry, the tested form may be a part): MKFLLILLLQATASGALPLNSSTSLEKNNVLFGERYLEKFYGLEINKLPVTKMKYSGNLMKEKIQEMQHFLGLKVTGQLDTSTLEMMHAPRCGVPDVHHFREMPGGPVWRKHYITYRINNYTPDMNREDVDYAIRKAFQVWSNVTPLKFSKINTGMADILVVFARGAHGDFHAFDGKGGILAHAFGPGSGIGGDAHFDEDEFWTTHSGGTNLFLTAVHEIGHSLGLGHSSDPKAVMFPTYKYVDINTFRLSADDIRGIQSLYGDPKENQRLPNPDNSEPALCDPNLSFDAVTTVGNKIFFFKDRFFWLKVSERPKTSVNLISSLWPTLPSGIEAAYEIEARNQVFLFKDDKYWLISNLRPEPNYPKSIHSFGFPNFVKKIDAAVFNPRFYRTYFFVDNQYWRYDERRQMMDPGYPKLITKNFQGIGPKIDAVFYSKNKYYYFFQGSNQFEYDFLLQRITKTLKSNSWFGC

`Cc1cccc(COc2ccc(Sc3ocnc3C3NC(=O)NC3=O)cc2)c1` (configuration not stated) [US20250115590, Compound OC-8]: the IC50 – broadly, the point on the concentration scale where inhibition reaches its midpoint – is over 1 µM.

Turning to `O=C1NC(=O)C(c2ncoc2Sc2ccc(OCc3cccc(CO)c3)cc2)N1` (configuration not stated) [US20250115590, Compound OC-9], the IC50 is over 1 µM.
